Positions of bridges follow the written chain, without caps; N, C: chain ends. Non-standard residues stand in square brackets, D forms with d. Residues, ends and D or L forms follow the SMILES beside them. Phe(3-Cl) = N[C@@H](Cc1cccc(Cl)c1)C(=O)O; Phe(2-Cl) = N[C@@H](Cc1ccccc1Cl)C(=O)O; 1Nal = N[C@@H](Cc1cccc2ccccc12)C(=O)O; His(τ-Me) = Cn1cnc(C[C@H](N)C(=O)O)c1; Bta = N[C@@H](Cc1csc2ccccc12)C(=O)O; d(hLeu) = CC(C)CC[C@@H](N)C(=O)O; Tic = O=C(O)[C@@H]1Cc2ccccc2CN1; Cha = N[C@@H](CC1CCCCC1)C(=O)O; dCha = N[C@H](CC1CCCCC1)C(=O)O; Nle = CCCC[C@H](N)C(=O)O; Orn = NCCC[C@H](N)C(=O)O; Aze = O=C(O)[C@@H]1CCN1

The term EC50 denotes the concentration at which the effect is half-maximal.

Sequences and labels used below:
T1: human C5aR(CD88) (Homo sapiens, UniProt P21730)
T1 construct: expressed in transfected cells; host or cells: rat basophilic leukemia cells (RBL)
T1 sequence (P21730 1-350): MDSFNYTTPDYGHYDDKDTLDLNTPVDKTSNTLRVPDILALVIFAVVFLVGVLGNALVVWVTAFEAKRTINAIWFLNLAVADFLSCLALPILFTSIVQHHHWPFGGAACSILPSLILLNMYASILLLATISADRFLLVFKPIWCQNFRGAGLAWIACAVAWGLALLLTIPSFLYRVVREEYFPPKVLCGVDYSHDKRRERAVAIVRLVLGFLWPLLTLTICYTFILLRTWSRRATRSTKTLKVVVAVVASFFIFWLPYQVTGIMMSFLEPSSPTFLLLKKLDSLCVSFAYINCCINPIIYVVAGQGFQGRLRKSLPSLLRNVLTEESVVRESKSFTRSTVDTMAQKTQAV

B1: hrC5a: hrC5a (Sigma), added for stimulation of enzyme release (protein, UniProt P01031 678-751, looked up)
C5a anaphylatoxin: TLQKKIEEIAAKYKHSVVKKCCYDGACVNNDETCEQRAARISLGPRCIKAFTECCVVASQLRANISHKDMQLGR
modifications: C5a anaphylatoxin
notes: hrC5a (Sigma), added for stimulation of enzyme release

The target of the first assay is T1, human C5aR(CD88). As to the kind of experiment: Determination of the IC50 value in an enzyme release assay (functional assay, antagonistic activity). Format: cell-based. To be noted: antagonistic activity; IC50 group in enzyme release assay, RBL cells expressing human C5aR(CD88); read-out: activity (group).
On to `CC(=O)N[C@@H](Cc1ccccc1)C(=O)N[C@@H](CCC(N)=O)C(=O)N1CCC[C@H]1C(=O)N[C@H](CC1CCCCC1)C(=O)N[C@@H](Cc1c[nH]c2ccccc12)C(=O)N[C@@H](Cc1ccccc1)C(N)=O` [Compound 89, Ac-Phe-Gln-Pro-cha-Trp-Phe-NH2] (Ac-FQP[dCha]WF-NH2), for which the IC50 fell in the range of 200 to 2000 nM.
Same read-out and setting: to `CC(=O)NCC(=O)N[C@@H](Cc1ccccc1)C(=O)N[C@@H](CCCN)C(=O)N1CC[C@H]1C(=O)N[C@H](CC1CCCCC1)C(=O)N[C@@H](Cc1csc2ccccc12)C(=O)N[C@@H](Cc1ccccc1)C(N)=O` [Compound 136, Ac-Gly-Phe-Orn-Aze-cha-Bta-Phe-NH2] (Ac-GF[Orn][Aze][dCha][Bta]F-NH2) belongs 20 to 50 nM; to `CC(=O)N[C@@H](Cc1ccccc1)C(=O)N[C@@H](CCCN)C(=O)N1CCC[C@H]1C(=O)N[C@H](CCC(C)C)C(=O)N[C@@H](Cc1ccccc1Cl)C(=O)N[C@@H](Cc1ccccc1)C(N)=O` [Compound 294, Ac-Phe-Orn-Pro-hle-Ocf-Phe-NH2] (Ac-F[Orn]P[d(hLeu)][Phe(2-Cl)]F-NH2), 50 to 200 nM.
Still for that read-out and setting: the figure for `CCCC[C@@H]1NC(=O)[C@H](Cc2c[nH]c3ccccc23)NC(=O)[C@@H](CC2CCCCC2)NC(=O)[C@@H]2Cc3ccccc3CN2C(=O)[C@@H](NC(=O)[C@H](Cc2ccccc2)NC(C)=O)CCCNC1=O` [Compound 205, Ac-Phe-[Orn-Tic-cha-Trp-Nle]] (Ac-F[Orn][Tic][dCha]W[Nle]; lactam 2-C) is 50 to 200 nM; for `CC(=O)N[C@@H](Cc1ccccc1)C(=O)N[C@@H](CCCN)C(=O)N1CCC[C@H]1C(=O)N[C@H](CCC(C)C)C(=O)N[C@@H](Cc1cccc(Cl)c1)C(=O)N[C@@H](CC1CCCCC1)C(N)=O` [Compound 289, Ac-Phe-Orn-Pro-hle-Mcf-Cha-NH2] (Ac-F[Orn]P[d(hLeu)][Phe(3-Cl)][Cha]-NH2) it is 20 to 50 nM.
The same measure, in the same setting: the figure for `CC(=O)N[C@@H](Cc1ccccc1)C(=O)N[C@@H](CCCN)C(=O)N1CCC[C@H]1C(=O)N[C@H](CC1CCCCC1)C(=O)N[C@@H](Cc1c[nH]c2ccccc12)C(=O)N[C@@H](CC1CCCCC1)C(N)=O` [Compound 65, Ac-Phe-Orn-Pro-cha-Trp-Cha-NH2] (Ac-F[Orn]P[dCha]W[Cha]-NH2) is 50 to 200 nM; for `CC(=O)N[C@@H](Cc1ccccc1)C(=O)N[C@@H](CCCN)C(=O)N1CCC[C@H]1C(=O)N[C@H](CC1CCCCC1)C(=O)N[C@@H](Cc1c[nH]c2ccccc12)C(=O)N[C@@H](Cc1cccc2ccccc12)C(N)=O` [Compound 94, Ac-Phe-Orn-Pro-cha-Trp-1Ni—NH2] (Ac-F[Orn]P[dCha]W[1Nal]-NH2) it is 20 to 50 nM.
Turning to `CC(=O)N[C@@H](Cc1ccccc1)C(=O)N[C@H]1CCCNC(=O)[C@H](Cc2cn(C)cn2)NC(=O)[C@H](Cc2c[nH]c3ccccc23)NC(=O)[C@@H](CC2CCCCC2)NC(=O)[C@@H]2CCCN2C1=O` [Compound 20, Ac-Phe-[Orn-Pro-cha-Trp-Ecr]] (Ac-F[Orn]P[dCha]W[His(τ-Me)]; lactam 2-C), the IC50 was 50 to 200 nM.
Same read-out and setting: the figure for `CC(=O)N[C@@H](Cc1ccccc1)C(=O)N[C@@H](CCCN)C(=O)N1CCC[C@H]1C(=O)N[C@H](CC1CCCCC1)C(=O)N[C@@H](Cc1c[nH]c2ccccc12)C(=O)N[C@@H](Cc1ccccc1)C(N)=O` [Compound 51, Ac-Phe-Orn-Pro-cha-Trp-Phe-NH2] (Ac-F[Orn]P[dCha]WF-NH2) is 20 to 50 nM; for `CC(=O)N[C@@H](Cc1ccccc1)C(=O)N[C@@H](CCCN)C(=O)N[C@@H](C)C(=O)N[C@H](CC1CCCCC1)C(=O)N[C@@H](Cc1c[nH]c2ccccc12)C(=O)N[C@@H](Cc1ccccc1)C(N)=O` [Compound 79, Ac-Phe-Orn-Ala-cha-Trp-Phe-NH2] (Ac-F[Orn]A[dCha]WF-NH2) it is 50 to 200 nM.
Same read-out and setting: to `CC(=O)N[C@@H](Cc1ccccc1)C(=O)N[C@@H](CCCN)C(=O)N1CC[C@H]1C(=O)N[C@H](CCC(C)C)C(=O)N[C@@H](Cc1csc2ccccc12)C(=O)N[C@@H](Cc1ccccc1)C(N)=O` [Compound 234, Ac-Phe-Orn-Aze-hle-Bta-Phe-NH2] (Ac-F[Orn][Aze][d(hLeu)][Bta]F-NH2) belongs 20 to 50 nM.
Same read-out and setting: to `CC(=O)N[C@@H](Cc1ccccc1)C(=O)N[C@@H](CCCN)C(=O)N1CCC[C@H]1C(=O)N[C@H](CCC(C)C)C(=O)N[C@@H](Cc1c[nH]c2ccccc12)C(=O)N[C@@H](Cc1ccccc1)C(N)=O` [Compound 306, Ac-Phe-Orn-Pro-hle-Trp-Phe-NH2] (Ac-F[Orn]P[d(hLeu)]WF-NH2) belongs 50 to 200 nM; to `CC(=O)N[C@@H](Cc1ccccc1)C(=O)N[C@H]1CCCNC(=O)[C@H](Cc2cccc3ccccc23)NC(=O)[C@H](Cc2c[nH]c3ccccc23)NC(=O)[C@@H](CC2CCCCC2)NC(=O)[C@@H]2CCCN2C1=O` [Compound 58, Ac-Phe-[Orn-Pro-cha-Trp-1Ni]] (Ac-F[Orn]P[dCha]W[1Nal]; lactam 2-C), 20 to 50 nM.

The assay is the same for the next values; noted with them: functional assay of example 11; noteworthy = IC50 less than 200 nM.
As for `CC(=O)N[C@@H](Cc1ccccc1)C(=O)N[C@H]1CCCNC(=O)[C@H](Cc2cn(C)cn2)NC(=O)[C@H](Cc2c[nH]c3ccccc23)NC(=O)[C@@H](CC2CCCCC2)NC(=O)[C@@H]2CCCN2C1=O` [Compound 20, Ac-Phe-[Orn-Pro-cha-Trp-Ecr]] (Ac-F[Orn]P[dCha]W[His(τ-Me)]; lactam 2-C), the “inhibitory activity (in words)” value is recorded as “noteworthy inhibitory activity”.

The target of another assay is T1, human C5aR(CD88). As to the kind of experiment: Determination of EC50-values in an enzyme release assay (agonistic activity). The format is cell-based. To be noted: agonistic activity, no C5a added; read-out: EC50. The protocol:
The assay procedure was described by Kohl (Kohl 1997 The Anaphylatoxins. In: Dodds, A. W., Sim, R. B. (Eds.), Complement: A Practical Approach. Oxford, pp. 135-163). Basophilic leukemia cells from rats (RBL), which express the human C5aR(CD88), were cultivated in DMEM with 10% fetal bovine serum, 100 U/ml penicillin, 100 μg/ml streptomycin and 2 mM glutamine (all components of the media from Biochrome, Berlin) to confluence at 37° C. and 10% CO2. The following specifications refer to single cell culture flask having a surface of 75 cm^2. Medium was decanted from cells. Cells were washed with 10 ml PBS (Dulbecco's PBS, Biochrome) and subsequently overlayed with 3 ml Cell Dissociation Solution (CDS, Sigma). Cells were incubated for 1 min at room temperature. Subsequently, CDS was removed and the cells were further incubated for 10-15 min at 37° C. for dissociation. In the assay, 20 μl of the solution containing the compound to be tested were used. This solution should not contain more than 2.8% DMSO. For the dilution process, the compounds were diluted in ⅓ or ½ steps. To 20 μl compound solution 75 μl of the RBL-cells were added, which were treated as follows: after dissociation cells were detached and warmed at 37° C. in 10 ml HAG-CM (20 mM HEPES; 125 mM NaCl, 5 mM KCl, 1 mM CaCl2, 1 mM MgCl2, 0,5 mM Glucose, 0,25% BSA. HEPES-preparation: 2.3 g/l HEPES-salt +2.66 g/l HEPES acid). Cells were counted and centrifuged (200×g, 10 min). The cell pellet was resuspended in preheated HAG-CM (i.e. Hepes-buffer NaCl-glucose-solution with calcium and magnesium), and the cell density was adjusted to 2×10^6 cells/ml. The cells were incubated at 37° C. for 5 min. Per ml cell suspension 27 μl of a cytochalasin B-solution were added (100 μg/ml in DMSO, Sigma). The cells were incubated for further 3 min at 37° C. 75 μl of the cell suspension were added to 20 μl compound solution leading to a volume of 95 μl per well. After incubation of the cells for 10 min at 37° C. 10 μl hrC5a (10.5 nM in HAG-CM, Sigma) per well were added. The cells were incubated for additional 5 min at 37° C. The mtp was then transferred to ice and centrifuged for 3 min at 4° C. with 1200×g. 75 μl of the supernatant were added to 100 μl substrate-solution (2.7 mg/ml p-nitrophenyl-N-acetyl-β-D-glucosaminide (Sigma) in 42.5 mM Na-acetate pH 4.5). The mtp was incubated for further 60 min at 37° C. 75 μl 0.4 M glycine pH 10.4 were added per well. The mtp was transferred into a reader and the absorption at 405 nm was measured. IC50-values were obtained following the equation; y=((A-D)/(1+(x/C)^B))+D.
Determination of EC50-Values in an Enzyme Release Assay
The determination of EC50-values was performed according to the procedure given in example II, with the exception that 30 μl of the test compound need to be mixed with 75 μl of the cell suspension mentioned in example 11. Neither preincubation nor addition of C5a for stimulation of enzyme release is needed.
As for `CC(=O)N[C@@H](Cc1ccccc1)C(=O)N[C@@H](CCCN)C(=O)N1CCC[C@H]1C(=O)N[C@H](CC1CCCCC1)C(=O)N[C@@H](Cc1c[nH]c2ccccc12)C(=O)N[C@@H](Cc1ccccc1)C(N)=O` [Compound 61, Ac-Phe-Orn-Pro-cha-Trp-Phe-NH2] (Ac-F[Orn]P[dCha]WF-NH2), the EC50 is greater than 100000 nM.
Turning to B1, the EC50 was determined as 2.4 nM.

The assay is the same for the next values; noted with them: cellular assay, up to a concentration of at least 1430 nM.
`CCCC[C@@H]1NC(=O)[C@H](Cc2c[nH]c3ccccc23)NC(=O)[C@@H](CC2CCCCC2)NC(=O)[C@H](CO)NC(=O)[C@@H](NC(=O)[C@@H](N)Cc2ccccc2)CCCNC1=O` [Compound 44, H-Phe-[Orn-Ser-cha-Trp-Nle]] (H-F[Orn]S[dCha]W[Nle]; lactam 2-C): the “agonistic activity (in words)” value is “pure antagonists”.
On the same count and under the same terms, the entry for `N[C@@H](Cc1ccccc1)C(=O)N[C@H]1CCCNC(=O)[C@H](Cc2ccccc2)NC(=O)[C@H](Cc2c[nH]c3ccccc23)NC(=O)[C@@H](CC2CCCCC2)NC(=O)[C@@H]2CCCN2C1=O` [H-Phe-[Orn-Pro-cha-Trp-Phe]] (H-F[Orn]P[dCha]WF; lactam 2-C) is “pure antagonists”.
On the same count and under the same terms, the entry for `CC(=O)N[C@@H](Cc1ccccc1)C(=O)N[C@@H](CCCN)C(=O)N1CCC[C@H]1C(=O)N[C@H](CC1CCCCC1)C(=O)N[C@@H](Cc1c[nH]c2ccccc12)C(=O)N[C@@H](Cc1ccccc1)C(N)=O` [Compound 61, Ac-Phe-Orn-Pro-cha-Trp-Phe-NH2] (Ac-F[Orn]P[dCha]WF-NH2) is “pure antagonists”.
Same read-out and setting: to `CC(=O)N[C@@H](Cc1ccccc1)C(=O)N[C@@H](CCCN)C(=O)N[C@H](CC1CCCCC1)C(=O)N[C@H](CC1CCCCC1)C(=O)N[C@@H](Cc1csc2ccccc12)C(=O)N[C@@H](Cc1ccccc1)C(N)=O` [Ac-Phe-Orn-cha-cha-Bta-Phe-NH2] (Ac-F[Orn][dCha][dCha][Bta]F-NH2) belongs “pure antagonists”.

The values are drawn from US20080161232A1, “C5a Receptor Antagonist” (JERINI AG, priority 2005, published 2008).
